Laboratory results as given in US8168860B2, “Compositions and methods for the modification of physiological responses in plants” (Rohm and Haas Company, priority 2007, dated 2012).
Where “and” joins values, the source holds several entries; their conditions need not be identical. Equal entries are not always repeated.

Tests used:
Format in all cases: in vivo
[1] = system: transformed tobacco plants; assay: Triple response assay, shoot length of transformed tobacco shoots in dark with ethylene; settings: for Shoot Length Avg (cm) / Shoot Length (cm): induced, 10 μM inducer, ethylene about 10 ppm, 18 days; for Shoot Length (cm): single shoots
Procedure: A triple response assay as described in Guzman and Ecker 1990 The Plant Cell, 2:513-523, modified as provided herein, was conducted to determine the effect of the modulation of ethylene sensitivity in the transformed tobacco plants of Example 2. From each transformed plant designated 185-1, 184-3, 185-8, 185-11, 187-7, 187-13, 187-17 and 187-21, two leaves from each plant were cut into small pieces. These pieces were plated onto MSS plates containing […] kanamycin, with or without 10 μM inducer, i.e., 3,5 Dimethyl-benzoic acid N-(1-ethyl-2,2-dimethyl-propyl)-N′-(3S-hydroxymethyl-5-methyl-2,3-dihydro-benzo[1,4]dioxine-6-carbonyl)hydrazide. MSS plates without antibiotic or inducer were used as controls.
These plated plant tissues were grown at 25° C. with light in growth chambers to induce shoots. Shoots were transferred into fresh plates for about two weeks for continued growth at 25° C. Each callus was then transferred to new culture dishes with or without inducer. Each callus with shoots starting to initiate was split into several plates with approximately equal amounts of callus per plate.
The plates were then separated into groups for the following treatment protocols which lasted for 18 days
Shoot length was measured, and the relative assessment of the efficacy of the transgenic plants prepared according to the Examples based on raw data for shoot length is reported in Table I for conditions (a) through (d) above. Typically, wild-type shoots exposed to ethylene in the dark display stunted growth. Ethylene insensitive plants under these conditions should show elongated growth. […] Shoots grown in the light produced uninterpretable data.

[2] = system: tomato seedlings p1002-18-3; assay: Transient induction: tomato seedlings on 20 μM ACC, inducer removed after 2-14 days; settings: for Hypocotyl (mm) / Root (mm) / Hypocotyl Percent (%) / Root Percent (%): p1002-18-3 tomato; for Hypocotyl (mm) / Root (mm): dark, 14 day old seedlings
Procedure: After 14 days growth in the dark, hypocotyls and roots were measured to assess ethylene insensitivity. Ethylene insensitive seedlings would be expected to have longer hypocotyls and roots. […] Thus, root and hypocotyl growth of the reversed seedlings should be intermediate between the sensitive and insensitive seedlings.

[3] = system: transformed tobacco plants; assay: Triple response assay, shoot length of transformed tobacco shoots in dark with ethylene; settings: tobacco plant 185-3 (VGE), induced, 10 μM inducer, ethylene about 10 ppm, 18 days
[4] = system: transformed tomato plants; assay: Triple response assay, transformed tomato plants with ethylene; settings: transgenic tomato with etr1-1 cassettes, 20 μM inducer, dark, 4-8 days
Procedure: A triple response assay (Guzman and Ecker, 1990, cited above, modified as described below) was used to determine the modulation of ethylene sensitivity in the transformed tomato plants. Tomato seed was surface-sterilized and imbibed in 20 μM inducer in the dark for 4 days at 4° C. The seed was plated on 0.5× MS with 1% sucrose and 20 μM inducer and for mutant receptors treated with 10 ppm ethylene or 1 ppm ethylene for wild-type receptors and grown in the dark for 4-8 days at 21° C. The response to ethylene was scored on the last day.

[5] = system: tomato seedlings (WT, p1002-18, p1003-16); assay: Tomato seedling growth on 20 μM ACC and various levels of inducer; settings: 20 μM ACC; for Hypocotyl (mm) / Root (mm): 10 day old seedlings
Procedure: Homozygous tomato seeds from one p1002 containing and one p1003 containing line were germinated on medium containing 20 μM ACC and various levels of inducer (i.e., 0.5-20 μM).

[6] = system: tomato seedlings (WT, p1002 and p1003 lines); assay: Tomato seedling growth in the dark on 20 μM ACC with or without inducer; settings: for Hypocotyls (mm) / Root (mm): 20 μM inducer, 20 μM ACC, 14 day old seedlings, dark
Procedure: Seed from three homozygous independent p1002 and p1003 lines were germinated in the dark on 0.5× MS medium+1% sucrose containing 20 μM ACC, the precursor to ethylene. Germination on ACC inhibits tomato seedling growth. Seed from the same lines also was germinated in the presence of 20 μM ACC plus 20 μM inducer.

[7] = 10 μM inducer, 2 days with inducer, 12 days without, 20 μM ACC
[8] = 10 μM inducer, 2 days with inducer, 12 days without, relative to 14 days with inducer
[9] = 10 μM inducer, 4 days with inducer, 10 days without, 20 μM ACC
[10] = 10 μM inducer, 4 days with inducer, 10 days without, relative to 14 days with inducer
[11] = 10 μM inducer, 6 days with inducer, 8 days without, 20 μM ACC
[12] = 10 μM inducer, 6 days with inducer, 8 days without, relative to 14 days with inducer
[13] = 10 μM inducer, 8 days with inducer, 6 days without, 20 μM ACC
[14] = 10 μM inducer, 8 days with inducer, 6 days without, relative to 14 days with inducer
[15] = 10 μM inducer, 14 days with inducer, 0 days without (reference)
[16] = 10 μM inducer, 14 days with inducer, 0 days without, 20 μM ACC
[17] = p1002-18 tomato, Inducer 0.5 μM
[18] = p1002-18 tomato, Inducer 2.5 μM
[19] = p1003-16 tomato, Inducer 0.5 μM
[20] = p1003-16 tomato, Inducer 2.5 μM
[21] = tomato line p1002-4 (first line so labelled, r8)
[22] = tomato line p1002-4 (second line so labelled, r13)

For `CCC(N(NC(=O)c1ccc2c(c1C)O[C@@H](CO)CO2)C(=O)c1cc(C)cc(C)c1)C(C)(C)C` (stereo partly drawn) [inducer, 3,5 Dimethyl-benzoic acid N-(1-ethyl-2,2-dimethyl-propyl)-N′-(3S-hydroxymethyl-5-methyl-2,3-dihydro-benzo[1,4]dioxine-6-carbonyl)hydrazide], the “Shoot Length Avg (cm)” value ([1]; tobacco plant 185-1 (VGE)) was 2.8 cm, the “Shoot Length Avg (cm)” value ([1]; tobacco plant 185-8 (VGE)) was 4.6 cm and the “Shoot Length (cm)” value ([1]; tobacco plant 185-8 (VGE)) was 5.5 cm and 5.0 cm and 4.0 cm and 4.4 cm and 4.3 cm. The “Shoot Length Avg (cm)” value ([1]; tobacco plant 185-11 (VGE)) was 4.0 cm, the “Shoot Length (cm)” value ([1]; tobacco plant 185-11 (VGE)) was 4.0 cm and 4.5 cm and 3.0 cm and the “Shoot Length Avg (cm)” value ([1]; tobacco plant 187-7 (GVE)) was 3.0 cm. For the same compound, the “Shoot Length (cm)” value ([1]; tobacco plant 187-7 (GVE)) was 3.0 cm, the “Shoot Length Avg (cm)” value ([1]; tobacco plant 187-13 (GVE)) was 3.9 cm and the “Shoot Length (cm)” value ([1]; tobacco plant 187-13 (GVE)) was 4.0 cm and 3.5 cm and 5.0 cm and 3.0 cm. For the same compound, the “Shoot Length Avg (cm)” value ([1]; tobacco plant 187-17 (GVE)) was 4.3 cm, the “Shoot Length (cm)” value ([1]; tobacco plant 187-17 (GVE)) was 5.6 cm and 3.5 cm and the “Shoot Length Avg (cm)” value ([1]; tobacco plant 187-21 (GVE)) was 3.4 cm. The “Shoot Length (cm)” value ([1]; tobacco plant 187-21 (GVE)) was 4.0 cm and 3.5 cm and 3.0 cm and 2.5 cm, the “ethylene insensitivity, based on increased shoot length compared to non-induced transgenic plants” value ([1]; transgenic tobacco with etr1-1 cassettes, presence of inducer, ethylene) was “demonstrated ethylene insensitivity” and the “Hypocotyl (mm)” value [2, 7] was 16.9 ± 4.30 mm. For the same compound, the “Root (mm)” value [2, 7] was 26.2 ± 15.3 mm, the “Hypocotyl Percent (%)” value [2, 8] was 63.8% and the “Root Percent (%)” value [2, 8] was 69.9%. The “Hypocotyl (mm)” value [2, 9] was 19.5 ± 7.52 mm, the “Root (mm)” value [2, 9] was 28.7 ± 14.7 mm and the “Hypocotyl Percent (%)” value [2, 10] was 73.6%. The “Root Percent (%)” value [2, 10] was 76.5%, the “Hypocotyl (mm)” value [2, 11] was 26.8 ± 6.27 mm and the “Root (mm)” value [2, 11] was 29.8 ± 9.61 mm. The “Hypocotyl Percent (%)” value [2, 12] was 101%, the “Root Percent (%)” value [2, 12] was 79.5% and the “Hypocotyl (mm)” value [2, 13] was 26.0 ± 10.3 mm. For the same compound, the “Root (mm)” value [2, 13] was 38.3 ± 9.15 mm, the “Hypocotyl Percent (%)” value [2, 14] was 98.1% and the “Root Percent (%)” value [2, 14] was 102%. The “Hypocotyl Percent (%)” value [2, 15] was 100%, the “Root Percent (%)” value [2, 15] was 100% and the “Hypocotyl (mm)” value [2, 16] was 26.5 ± 7.51 mm. For the same compound, the “Root (mm)” value [2, 16] was 37.5 ± 13.2 mm, the “duration of induction sufficient for a full state of ethylene insensitivity” value ([2]; tomato p1002 line, 10 μM inducer, 20 μM ACC) was “Six days was sufficient to induce a full state of ethylene insensitivity” and the “reversal after removal of inducer” value ([2]; tomato p1002 line, induced for 2 or 4 days then removed from inducer, compared to non-induced control) was “showed return to a state of ethylene sensitivity”. For the same compound, the “Shoot Length Avg (cm)” value [3] was 5.6 cm, the “ethylene insensitivity, based on increased shoot length and/or altered root growth compared to non-induced transgenic plants” value [4] was “demonstrated ethylene insensitivity” and the “Hypocotyl (mm)” value ([5]; WT tomato, Inducer 20 μM) was 6.24 ± 2.75 mm. The “Root (mm)” value ([5]; WT tomato, Inducer 20 μM) was 9.06 ± 14.8 mm, the “Hypocotyl (mm)” value [5, 17] was 8.40 ± 6.29 mm and the “Root (mm)” value [5, 17] was 12.0 ± 13.3 mm. For the same compound, the “Hypocotyl (mm)” value ([5]; p1002-18 tomato, Inducer 1 μM) was 11.1 ± 7.41 mm, the “Root (mm)” value ([5]; p1002-18 tomato, Inducer 1 μM) was 16.5 ± 16.6 mm and the “Hypocotyl (mm)” value [5, 18] was 13.5 ± 8.97 mm. For the same compound, the “Root (mm)” value [5, 18] was 16.0 ± 16.6 mm, the “Hypocotyl (mm)” value ([5]; p1002-18 tomato, Inducer 5 μM) was 14.5 ± 7.75 mm and the “Root (mm)” value ([5]; p1002-18 tomato, Inducer 5 μM) was 15.2 ± 8.39 mm. For the same compound, the “Hypocotyl (mm)” value ([5]; p1002-18 tomato, Inducer 10 μM) was 19.8 ± 10.8 mm, the “Root (mm)” value ([5]; p1002-18 tomato, Inducer 10 μM) was 22.7 ± 13.5 mm and the “Hypocotyl (mm)” value ([5]; p1002-18 tomato, Inducer 20 μM) was 26.3 ± 11.9 mm. The “Root (mm)” value ([5]; p1002-18 tomato, Inducer 20 μM) was 33.3 ± 12.8 mm, the “Hypocotyl (mm)” value [5, 19] was 17.0 ± 6.46 mm and the “Root (mm)” value [5, 19] was 14.4 ± 15.3 mm. The “Hypocotyl (mm)” value ([5]; p1003-16 tomato, Inducer 1 μM) was 20.9 ± 10.7 mm, the “Root (mm)” value ([5]; p1003-16 tomato, Inducer 1 μM) was 10.3 ± 12.7 mm and the “Hypocotyl (mm)” value [5, 20] was 20.1 ± 8.77 mm. The “Root (mm)” value [5, 20] was 9.19 ± 8.98 mm, the “Hypocotyl (mm)” value ([5]; p1003-16 tomato, Inducer 5 μM) was 23.6 ± 11.4 mm and the “Root (mm)” value ([5]; p1003-16 tomato, Inducer 5 μM) was 20.2 ± 14.9 mm. For the same compound, the “Hypocotyl (mm)” value ([5]; p1003-16 tomato, Inducer 10 μM) was 25.9 ± 8.77 mm, the “Root (mm)” value ([5]; p1003-16 tomato, Inducer 10 μM) was 29.1 ± 12.4 mm and the “Hypocotyl (mm)” value ([5]; p1003-16 tomato, Inducer 20 μM) was 27.5 ± 9.10 mm. For the same compound, the “Root (mm)” value ([5]; p1003-16 tomato, Inducer 20 μM) was 25.6 ± 11.4 mm, the “relation of inducer concentration to level of ethylene insensitivity” value ([5]; tomato p1002 and p1003 line, inducer 0.5-20 μM) was “directly related to the level of ethylene insensitivity” and the “Hypocotyls (mm)” value ([6]; WT tomato) was 11.2 ± 3.18 mm. The “Root (mm)” value ([6]; WT tomato) was 11.2 ± 3.18 mm, the “Hypocotyls (mm)” value [6, 21] was 32.7 ± 16.8 mm and the “Root (mm)” value [6, 21] was 42.2 ± 16.3 mm. The “Hypocotyls (mm)” value [6, 22] was 33.9 ± 6.02 mm, the “Root (mm)” value [6, 22] was 29.8 ± 21.4 mm and the “Hypocotyls (mm)” value ([6]; tomato line p1002-7) was 36.2 ± 8.42 mm. The “Root (mm)” value ([6]; tomato line p1002-7) was 44.5 ± 7.71 mm, the “Hypocotyls (mm)” value ([6]; tomato line p1002-9) was 29.9 ± 7.85 mm and the “Root (mm)” value ([6]; tomato line p1002-9) was 35.0 ± 16.0 mm. For the same compound, the “Hypocotyls (mm)” value ([6]; tomato line p1002-16) was 39.6 ± 9.62 mm, the “Root (mm)” value ([6]; tomato line p1002-16) was 19.5 ± 16.3 mm and the “Hypocotyls (mm)” value ([6]; tomato line p1002-18) was 35.4 ± 8.82 mm. The “Root (mm)” value ([6]; tomato line p1002-18) was 35.4 ± 8.82 mm and the “ethylene insensitivity (elongated hypocotyls with no apical hook)” value ([6]; tomato p1002 and p1003 lines, growth on ACC in the presence of inducer) was “resulted in a state of ethylene insensitivity”.
